Reference: ChEMBL document CHEMBL1201862, “PubChem BioAssay data set” (2004)
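A five-concentration, 48-hour dose response in 96-well plates underlies each endpoint, interpolated linearly between surrounding concentrations. GI50 = concentration required for 50% inhibition of growth.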 Calls of active or inactive are those of the source. Cut-off read from the data, not from the text of the source: active = GI50 up to about 1.1 µM and inactive = higher.

What was measured:
Assay in all cases: NCI anticancer screen, dose series, 48 h
786-0 = tested on: 786-0
A549 = tested on: A549
CAKI-1 = tested on: CAKI-1
DU-145 = tested on: DU-145
EKVX = tested on: EKVX
HCT-116 = tested on: HCT-116
HT-29 = tested on: HT-29
IGROV-1 = tested on: IGROV-1
KM12 = tested on: KM12
NCI-H23 = tested on: NCI-H23
NCI/ADR-RES = tested on: NCI/ADR-RES
OVCAR-4 = tested on: OVCAR-4
PC-3 = tested on: PC-3
SF-268 = tested on: SF-268
SK-MEL-2 = tested on: SK-MEL-2
SW-620 = tested on: SW-620
UACC-257 = tested on: UACC-257
SR = tested on: SR
T47D = tested on: T47D

N/C(=N\c1ccc(Cl)c(Cl)c1)c1ccccc1N
GI50 (786-0): 28.2 µM (inactive) | GI50 (A549): 25.3 µM (inactive) | GI50 (CAKI-1): 30.3 µM (inactive) | GI50 (DU-145): 51.9 µM (inactive) | GI50 (EKVX): 18.3 µM (inactive) | GI50 (HCT-116): 17.2 µM (inactive) | GI50 (HT-29): 24.3 µM (inactive) | GI50 (IGROV-1): 13.3 µM (inactive) | GI50 (KM12): 33.6 µM (inactive) | GI50 (NCI-H23): 24.3 µM (inactive) | GI50 (NCI/ADR-RES): 19.2 µM (inactive) | GI50 (OVCAR-4): 50.8 µM (inactive) | GI50 (PC-3): 19.3 µM (inactive) | GI50 (SF-268): 20.2 µM (inactive) | GI50 (SK-MEL-2): 15.4 µM (inactive) | GI50 (SW-620): 63.8 µM (inactive) | GI50 (UACC-257): 27.1 µM (inactive)

COc1cc(C2c3cc4c(cc3[C@@H](OCCN)[C@H]3COC(=O)C23)OCO4)cc(OC)c1O (stereo not given in full)
GI50 (786-0): 0.082 µM (active) | GI50 (A549): 0.0518 µM (active) | GI50 (CAKI-1): 0.135 µM (active) | GI50 (EKVX): 0.413 µM (active) | GI50 (HCT-116): 0.995 µM (active) | GI50 (HT-29): 0.7 µM (active) | GI50 (IGROV-1): 1.15 µM (inactive) | GI50 (KM12): 0.491 µM (active) | GI50 (NCI-H23): 0.136 µM (active) | GI50 (OVCAR-4): 2.05 µM (inactive) | GI50 (SF-268): 0.159 µM (active) | GI50 (SK-MEL-2): 0.322 µM (active) | GI50 (SR): < 0.0191 µM (active) | GI50 (SW-620): 0.179 µM (active) | GI50 (UACC-257): 1.24 µM (inactive)

CC(=O)N1c2ccccc2[C@H]2CCc3c([nH]c4ccccc34)[C@H]21
GI50 (786-0): 15 µM (inactive) | GI50 (A549): 17.2 µM (inactive) | GI50 (CAKI-1): 15.6 µM (inactive) | GI50 (DU-145): 20.1 µM (inactive) | GI50 (EKVX): 14.5 µM (inactive) | GI50 (HCT-116): 3.07 µM (inactive) | GI50 (HT-29): 8.11 µM (inactive) | GI50 (IGROV-1): 4.33 µM (inactive) | GI50 (KM12): 11.1 µM (inactive) | GI50 (NCI-H23): 9.53 µM (inactive) | GI50 (NCI/ADR-RES): 23.3 µM (inactive) | GI50 (PC-3): 23 µM (inactive) | GI50 (SF-268): 15.4 µM (inactive) | GI50 (SK-MEL-2): 19.2 µM (inactive) | GI50 (SW-620): 12 µM (inactive) | GI50 (T47D): 18.7 µM (inactive) | GI50 (UACC-257): 31.6 µM (inactive)

C=CCCC1(CCP(=O)(c2ccccc2)c2ccccc2)OCCO1
GI50 (786-0): > 100 µM (inactive) | GI50 (A549): > 100 µM (inactive) | GI50 (DU-145): > 100 µM (inactive) | GI50 (EKVX): > 100 µM (inactive) | GI50 (HCT-116): > 100 µM (inactive) | GI50 (HT-29): > 100 µM (inactive) | GI50 (IGROV-1): > 100 µM (inactive) | GI50 (KM12): > 100 µM (inactive) | GI50 (NCI-H23): > 100 µM (inactive) | GI50 (NCI/ADR-RES): > 100 µM (inactive) | GI50 (PC-3): > 100 µM (inactive) | GI50 (SF-268): > 100 µM (inactive) | GI50 (SK-MEL-2): > 100 µM (inactive) | GI50 (SR): > 100 µM (inactive) | GI50 (SW-620): > 100 µM (inactive) | GI50 (UACC-257): > 100 µM (inactive)

Clc1ccc(-c2ccc(-c3nnc(COc4ccc(OCc5nnc(-c6ccc(-c7ccc(Cl)cc7Cl)o6)o5)c(Cl)c4)o3)o2)c(Cl)c1
GI50 (786-0): > 100 µM (inactive) | GI50 (A549): > 100 µM (inactive) | GI50 (CAKI-1): > 100 µM (inactive) | GI50 (DU-145): > 100 µM (inactive) | GI50 (EKVX): > 100 µM (inactive) | GI50 (HCT-116): > 100 µM (inactive) | GI50 (HT-29): > 100 µM (inactive) | GI50 (IGROV-1): > 100 µM (inactive) | GI50 (KM12): > 100 µM (inactive) | GI50 (NCI-H23): > 100 µM (inactive) | GI50 (NCI/ADR-RES): > 100 µM (inactive) | GI50 (OVCAR-4): > 100 µM (inactive) | GI50 (SF-268): 56.1 µM (inactive) | GI50 (SK-MEL-2): 25.3 µM (inactive) | GI50 (SR): 28.8 µM (inactive) | GI50 (SW-620): > 100 µM (inactive) | GI50 (T47D): > 100 µM (inactive) | GI50 (UACC-257): > 100 µM (inactive)

C#CCCCCC#Cc1ccccc1C(=O)C=[N+]=[N-]
GI50 (786-0): > 100 µM (inactive) | GI50 (A549): > 100 µM (inactive) | GI50 (CAKI-1): > 100 µM (inactive) | GI50 (DU-145): > 100 µM (inactive) | GI50 (EKVX): > 100 µM (inactive) | GI50 (HCT-116): > 100 µM (inactive) | GI50 (HT-29): > 100 µM (inactive) | GI50 (IGROV-1): > 100 µM (inactive) | GI50 (NCI-H23): > 100 µM (inactive) | GI50 (OVCAR-4): > 100 µM (inactive) | GI50 (PC-3): > 100 µM (inactive) | GI50 (SF-268): > 100 µM (inactive) | GI50 (SK-MEL-2): > 100 µM (inactive) | GI50 (SW-620): > 100 µM (inactive) | GI50 (T47D): > 100 µM (inactive) | GI50 (UACC-257): > 100 µM (inactive)

COC(=O)C(/C(=N/NC(=O)c1ccncc1)C(=O)Nc1ccccc1OC)c1nc2ccc(Cl)cc2nc1O (stereo not given)
GI50 (786-0): > 100 µM (inactive) | GI50 (A549): > 100 µM (inactive) | GI50 (CAKI-1): > 100 µM (inactive) | GI50 (EKVX): 77.8 µM (inactive) | GI50 (HCT-116): 83.4 µM (inactive) | GI50 (HT-29): > 100 µM (inactive) | GI50 (IGROV-1): 11 µM (inactive) | GI50 (KM12): 92 µM (inactive) | GI50 (NCI-H23): > 100 µM (inactive) | GI50 (NCI/ADR-RES): > 100 µM (inactive) | GI50 (OVCAR-4): 55 µM (inactive) | GI50 (PC-3): > 100 µM (inactive) | GI50 (SF-268): > 100 µM (inactive) | GI50 (SK-MEL-2): > 100 µM (inactive) | GI50 (SR): 0.78 µM (active) | GI50 (SW-620): > 100 µM (inactive) | GI50 (T47D): > 100 µM (inactive) | GI50 (UACC-257): > 100 µM (inactive)

COc1cc(/C=C2\N=C(c3ccccc3)N(c3cc4cc(Sc5ccccc5)ccc4[nH]3)C2=O)cc(OC)c1OC
GI50 (786-0): 12.6 µM (inactive) | GI50 (A549): 19.5 µM (inactive) | GI50 (CAKI-1): 17.3 µM (inactive) | GI50 (DU-145): 15.2 µM (inactive) | GI50 (EKVX): 17.5 µM (inactive) | GI50 (HCT-116): 11.7 µM (inactive) | GI50 (HT-29): 16.1 µM (inactive) | GI50 (IGROV-1): 15.5 µM (inactive) | GI50 (KM12): 15 µM (inactive) | GI50 (NCI-H23): 25.5 µM (inactive) | GI50 (NCI/ADR-RES): 20.2 µM (inactive) | GI50 (OVCAR-4): 26 µM (inactive) | GI50 (SF-268): 2.16 µM (inactive) | GI50 (SR): 2.18 µM (inactive) | GI50 (SW-620): 19.2 µM (inactive) | GI50 (T47D): 8.17 µM (inactive) | GI50 (UACC-257): 14.8 µM (inactive)

CC1=CCC(=O)[C@]2(C)C(CC(=O)O)[C@]3(C)C4=C(C)C(c5ccoc5)C[C@@H]4O[C@@H]3[C@H](O)[C@@H]12 (stereo not given in full)
GI50 (786-0): > 100 µM (inactive) | GI50 (A549): > 100 µM (inactive) | GI50 (CAKI-1): > 100 µM (inactive) | GI50 (DU-145): > 100 µM (inactive) | GI50 (EKVX): > 100 µM (inactive) | GI50 (HCT-116): > 100 µM (inactive) | GI50 (IGROV-1): > 100 µM (inactive) | GI50 (KM12): > 100 µM (inactive) | GI50 (NCI-H23): > 100 µM (inactive) | GI50 (NCI/ADR-RES): > 100 µM (inactive) | GI50 (OVCAR-4): > 100 µM (inactive) | GI50 (PC-3): > 100 µM (inactive) | GI50 (SF-268): > 100 µM (inactive) | GI50 (SK-MEL-2): > 100 µM (inactive) | GI50 (SW-620): > 100 µM (inactive) | GI50 (T47D): > 100 µM (inactive) | GI50 (UACC-257): > 100 µM (inactive)

O=C1/C(=C\c2cccc(Oc3ccccc3)c2)SC(c2ccccc2)N1c1cccc(Cl)c1 (stereo not given)
GI50 (786-0): > 100 µM (inactive) | GI50 (A549): > 100 µM (inactive) | GI50 (CAKI-1): > 100 µM (inactive) | GI50 (DU-145): > 100 µM (inactive) | GI50 (EKVX): > 100 µM (inactive) | GI50 (HCT-116): > 100 µM (inactive) | GI50 (HT-29): > 100 µM (inactive) | GI50 (KM12): 35.8 µM (inactive) | GI50 (NCI-H23): > 100 µM (inactive) | GI50 (NCI/ADR-RES): > 100 µM (inactive) | GI50 (OVCAR-4): > 100 µM (inactive) | GI50 (SF-268): > 100 µM (inactive) | GI50 (SK-MEL-2): > 100 µM (inactive) | GI50 (SW-620): > 100 µM (inactive) | GI50 (T47D): > 100 µM (inactive) | GI50 (UACC-257): > 100 µM (inactive)

COc1ccc(OC)c(NCC(=O)Nn2cnc3ccc(S(=O)(=O)Nc4cc(OC)ccc4OC)cc3c2=O)c1
GI50 (786-0): > 100 µM (inactive) | GI50 (A549): 90.8 µM (inactive) | GI50 (CAKI-1): > 100 µM (inactive) | GI50 (DU-145): > 100 µM (inactive) | GI50 (EKVX): > 100 µM (inactive) | GI50 (HCT-116): 32.6 µM (inactive) | GI50 (HT-29): 45.5 µM (inactive) | GI50 (IGROV-1): > 100 µM (inactive) | GI50 (KM12): 46 µM (inactive) | GI50 (NCI-H23): 66.7 µM (inactive) | GI50 (NCI/ADR-RES): > 100 µM (inactive) | GI50 (OVCAR-4): > 100 µM (inactive) | GI50 (PC-3): 37.5 µM (inactive) | GI50 (SF-268): > 100 µM (inactive) | GI50 (SK-MEL-2): 35.4 µM (inactive) | GI50 (SR): 25.4 µM (inactive) | GI50 (SW-620): > 100 µM (inactive) | GI50 (UACC-257): 82.6 µM (inactive)
